Results taken from US6613797B2, “Xanthone analogs for treating infectious diseases and complexation of heme and porphyrins” (Interlab, Inc., priority 1999, dated 2003).
Like-named read-outs stand apart in the source and are kept apart here.

Experiments:
[1] = test system: Plasmodium falciparum D6 strain; experiment: in vitro anti-malarial activity, [3H]-ethanolamine incorporation method; type: cell-based
Description: Cultures were maintained at 37° C. in a gas mixture of 5% oxygen, 5% CO2, and 90% nitrogen.
[^3H]-ethanolamine was obtained from American Radiolabeled Chemicals, Inc., St. Louis, Mo. Experiments were conducted in 96 well plates in a total volume of 200 μl at a final red blood cell concentration of 2% (v/v). An initial parasitemia of 0.2 to 0.5% was attained by addition of normal uninfected red cells. Radiolabeled ethanolamine was added after 48 hours of incubation and the experiment was terminated after 72 hours by collecting the cells onto glass fiber filters with an automated multiwell harvester.
Stock solutions of the various Formula X1 compounds were dissolved in DMSO at a concentration of 1 mM and diluted in complete medium (including 10% human serum) to provide 10X stock concentrations in the range of 1 to 10,000 nM.

[2] = in vitro heme aggregation (polymerization) assay; type: biochemical; conditions: for inhibitory activity in heme polymerization assay: result in words
Description: Heme polymerization was carried out in 0.02 M phosphate buffer, pH 5.2 at 37° C. in the absence of protenis. A 10 mM stock solution of hemin chloride in 0.1 M NaOH wa prepared freshly and incuated at 37° C. for at least 1 hour to effect complete dissolution. Xanthones were dissolved in dimethylformamide at 10 mM and diluted into 10 ml of pre-warmed phosphate solution to a final concentraion of 25 μm. […] 25 μl of dimethylformaide wa added to the control smample. After 7, 30, 60, 120 and 190 minutes of incugation at 37° C., a 1 ml aliquot was withdraqwn, tranferred into an Eppendorf tube, and centrifugted at 14,000 g for 2 minutes at room temperature to pellet the precipitate. The soluble fraction was then transferred to a semi-microcuvette (polymethyacrylate, VER), and its absoprtion was measured at 360 nm against a blank of the test compound in buffer.
The reactions were allowed to proceed for 2 hours in a 37° C. waterbath. After incubation, the polymer was pelleted as described above and the absorption (360 nm) of each soluble fraction was measured against a blank containing the drug alone in buffer. The IC50 values were determined by nonlinear regression analysis of the dose-response curves of percent inhibition of heme polymerization vs. drug concentration.

[3] = Table 3, 25 μM heme, pH 5.2, 37° C., 2 hours, average of at least two determinations, read-out: IC50, μM in vitro heme polymerization
[4] = Plasmodium falciparum, D6, Table 3, read-out: IC50 μM, P. falciparum clone D6
[5] = Plasmodium falciparum, D6, Table 4, average of 2 experiments in triplicate, 72 hour assay, read-out: IC50 μM* P. falciparum D6
[6] = Plasmodium falciparum, D6, read-out: IC50 μM, P. falciparum clone D6

| Compound | IC50 [2, 3] | IC50 [1, 4] | further results |
| --- | --- | --- | --- |
| CCN(CC)CCCCCOc1cccc2c(=O)c3cccc(OCCCCCN(CC)CC)c3oc12 |  |  | IC50 ([1]; Plasmodium falciparum, D6, Table 4, cells printed in nM, 72 hour assay, read-out: IC50 μM* P. falciparum D6): 575 nM |
| O=c1c2ccccc2oc2cc(O)cc(O)c12 [1,3-dihydroxyxanthone] | > 1000 µM | 75000 nM |  |
| CCN(CC)CCOc1cccc2c(=O)c3cccc(OCCN(CC)CC)c3oc12 [45-DEAE-X, 4,5-bis-β-(N,N-diethylamino)ethoxy-xanthone] |  |  | IC50 [1, 5]: 2800 nM |
| O=c1c2ccccc2oc2ccccc12 [Xanthone] |  |  | inhibitory activity in heme polymerization assay [2]: did not exhibit any inhibitory activity; IC50 ([1]; Plasmodium falciparum, D6, read-out: IC50, μM vs. Plasmodium): > 10000 nM |
| O=c1c2cccc(O)c2oc2c(O)cccc12 [4,5-dihydroxyxanthone] | 14 µM | 16000 nM |  |
| CC(=O)Oc1cc2c(=O)c3ccc(OC(C)=O)c(OC(C)=O)c3oc2c(OC(C)=O)c1OC(C)=O [2,3,4,5,6-pentaacetoxyxanthone] | > 1000 µM | 75 nM | inhibitory activity in heme polymerization assay [2]: inactive |
| CCN(CC)CCCCCCCCOc1ccc2c(=O)c3ccc(OCCCCCCCCN(CC)CC)cc3oc2c1 [36-DEAOctyloxy-X, 3,6-bis-(N,N-diethylamino)octyloxy-xanthone] |  |  | IC50 ([1]; Table 4, average of 2 experiments in triplicate, 72 hour assay, read-out: IC50 μM* P. falciparum D6): 430 nM |
| O=c1c2ccccc2oc2ccc(O)cc12 [2-hydroxyxanthone] | > 1000 µM |  | IC50 [1, 6]: 50000 nM |
| O=c1c2ccc(O)cc2oc2cc(O)ccc12 [3,6-dihydroxyxanthone] | > 500 µM |  | IC50 [1, 6]: > 100000 nM |
| CCN(CC)CCCC(C)Nc1ccnc2cc(Cl)ccc12 (centres unmarked) [Chloroquine, reference compound] |  |  | IC50 ([1]; Plasmodium falciparum, D6, read-out: IC50, anti-malarial activity): ~40 nM |
| O=c1c2cc(O)c(O)c(O)c2oc2cc(O)cc(O)c12 [1,3,5,6,7-pentahydroxyxanthone] | 9 µM | 1000 nM |  |
| O=c1c2ccccc2oc2cc(O)ccc12 [3-hydroxyxanthone] | > 1000 µM |  | IC50 [1, 6]: > 100000 nM |
| CCN(CC)CCCCCOc1ccc2c(=O)c3ccccc3oc2c1 [3-(N,N-diethylamino)amyloxy-xanthone] |  |  | IC50 [1, 5]: 2500 nM |
| COc1cc2c(=O)c3ccc(OC)c(OC)c3oc2c(OC)c1OC [2,3,4,5,6-pentamethoxyxanthone] | > 1000 µM | > 100000 nM | inhibitory activity in heme polymerization assay [2]: inactive |
| O=c1c2ccccc2oc2c(O)c(O)c(O)cc12 [2,3,4-trihydroxyxanthone] | 17 µM | 40000 nM | IC50 ([2]; text b143, read-out: IC50, inhibition of heme polymerization): 16.5 µM |
| CCN(CC)c1ccc2c(=O)c3ccc(N(CC)CC)cc3oc2c1 [36-DEAX, 3,6-bis-N,N-diethylamino-xanthone] |  |  | IC50 [1, 5]: 20000 nM; IC50 ([1]; Plasmodium falciparum, P. falciparum D6, read-out: IC50, anti-malarial activity): ~20000 nM |
| O=c1c2ccc(O)c(O)c2oc2c(O)c(O)ccc12 [3,4,5,6-tetrahydroxyxanthone] | 2.5 µM | 5000 nM |  |
